Laboratory results taken from patent publication US20230416258A1, “BENZ[…], AND PREPARATION METHOD THEREFOR AND USE THEREOF” (CHINA PHARMACEUTICAL UNIVERSITY, priority 2020, published 2023).
Where two headings read alike, the source gives them in different places.

What was measured:
[1] = system: SD rats; assay: Test for drug-induced disappearance of righting reflex in rats; format: in vivo; settings: single rapid bolus via tail vein
Description: In anesthetic drug experiments, latency generally refers to the time from the start of administration to the loss of consciousness of the subject. The shorter latency is preferred, indicating a rapid onset of action after administration. The duration of anesthesia generally refers to the duration of time from the loss of consciousness to the restoration of consciousness of the subject. The duration of the drug will vary from animal model to animal species. Too long anesthesia may produce adverse cardiovascular and respiratory responses, such as adverse neurological effects to the subject, including sleepiness and dizziness; meanwhile, too short duration of anesthesia may affect the anesthesia effect, causing problems such as increase of anesthesia dosage during the operation.
SD rats (male, 200-280 g) were randomly grouped and subjected to a single administration by rapid bolus via the tail vein. The latency and duration of righting reflex in the rats were recorded.

[2] = system: GABA-activated Cl− current (GABAA receptor) in HEK 293T cells; assay: Effect of drugs on GABA-activated current in cells by cell patch clamp; format: cell-based; settings: for Enhancement percentage Emax for 2 μM GABA current (within 3-30 μM): corresponding concentration 20 μM
Description: Test compounds were dissolved at various concentrations in an extracellular buffer (140 mM NaCl, 4.7 mM KCl, 10 mM HEPES, 2 mM CaCl2), 10 mM glucose, 1 mM MgCl2, pH 7.4). HEK 293T cells were seeded on glass coverslips and cultured in DMEM media at 37° C. with 5% CO2 for 24 h. GABA Cl^− current was subjected to whole cell recording using an HEKA EPC 10USB patch clamp amplifier. 2 μM GABA was used for exciting Cl^− current, with the membrane potential clamped at −60 mV. The cells were treated with the test compound and 2 μM GABA simultaneously, and the induction effect on and Emax of Cl^− current in the same cell were recorded.
Maximum enhancement percentage Emax for 2 μM GABA current and corresponding concentration (μM): 100% for normal humans. The greater the percentage, the lower the corresponding concentration, and the greater the depth of anesthesia.

[3] = system: SD rats; assay: Induction of anesthesia in rats by continuous infusion of drug for 20 min; format: in vivo; settings: initial dose 20 mg/kg bolus, maintenance dose 0.2 (mg/kg)/min for 20 min, after infusion completed
Description: SD rats (male, 200-280 g) were randomly grouped and subjected to administration of an initial dose by rapid bolus via the tail vein, followed by a continuous infusion with a maintenance dose for 20 min.
After the infusion was completed, the duration of the righting reflex and the time from wake-up to recovery in rats were recorded.

[4] = system: KM mice; assay: Test for drug-induced disappearance of righting reflex in mice; format: in vivo; settings: single rapid bolus via tail vein
Procedure, shortened: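 Latency to, and duration of, righting reflex loss were recorded after one fast tail-vein bolus. Animals: randomized female KM mice weighing 18–25 g.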

[5] = system: hCMEC/D3 cells; assay: Rate of drug passing through in vitro blood-brain barrier (Transwell); format: in vitro ADME; settings: hCMEC/D3 monolayer, compound 0.1 mg/mL
Description: A Transwell device (pore size: 5.0 μm) was placed in a 24-well cell culture well; then hCMEC/D3 cells at 1×10^5 cells/mL were transferred to the upper microwells of Transwell at 150 μL/well, and cell culture medium was added to the lower microwells. After the bottom was covered by a single layer of the cells, the medium in the wells was replaced with EBM-2 complete medium containing 1% FBS, and the cells were cultured in a CO2 incubator for 10 days until a fully dense single layer of the cells was formed. When a fully dense single layer of the cells was formed, the compound at 0.1 mg/mL was added to the lower medium, and after 5 min, the concentration of the compound in the upper medium was measured to calculate the permeability:
Pcompound%=Cupper compound/Clower compound×100%

[6] = read-out: Positive enhancement EC50 (μM) for 2 μM GABA-induced current, −60 mV
[7] = 2 μM GABA, −60 mV, read-out: Positive enhancement EC50 (μM) for 2 μM GABA-induced current

Row | SMILES | Latency [1] | EC50 [2, 6] | Enhancement percentage Emax for 2 μM GABA current (within 3-30 μM) ([2]; −60 mV) | Duration of anesthesia [3] | Time from wake-up to recovery [3] | Duration ([4]; 60 mg/kg) | Latency ([4]; 60 mg/kg) | Duration ([4]; 100 mg/kg) | Latency ([4]; 100 mg/kg) | In vitro blood-brain barrier, compound permeability at 5 min [5] | Duration ([4]; 30 mg/kg) | Latency ([4]; 30 mg/kg) | Duration [1] | EC50 [2, 7]
1 | COC(=O)CC[C@@H]1N=C(c2ccccc2F)c2cc(Cl)ccc2-n2c(SCCN3CCOCC3)nnc21 [Compound 51, methyl (S)-3-(8-chloro-6-(2-fluorophenyl)-1-((2-morpholinoethyl)thio)-4H-benzo[f][1,2,4]triazolo[4,3-a][1,4]diazepin-4-yl)propionate] | 0.27 min | 0.41 µM | 304% (20 μM) | 8.36 min | 22.6 min | 8.46 min | 0.25 min | 14.6 min | 0.16 min | 78.6% | – | – | – | –
2 | COC(=O)CC[C@@H]1N=C(c2ccccc2F)c2cc(Cl)ccc2-n2c(S)nnc21 [Compound 1, methyl (S)-3-(8-chloro-6-(2-fluorophenyl)-1-mercapto-4H-benzo[f][1,2,4]triazolo[4,3-a][1,4]diazepin-4-yl)propionate] | 0.25 min | 0.85 µM | 216% (20 μM) | 2.82 min | 11.2 min | – | – | – | – | 72.2% | 3.51 min | 0.26 min | – | –
3 | COC(=O)CC[C@@H]1N=C(c2ccccc2Cl)c2cc(Cl)ccc2-n2c(Sc3cn(C)cn3)nnc21 [Compound 141, methyl (S)-3-(8-chloro-6-(2-chlorophenyl)-1-((1-methyl-1H-imidazol-4-yl)thio)-4H-benzo[f][1,2,4]triazolo[4,3-a][1,4]diazepin-4-yl)propionate] | 0.21 min | 0.61 µM | 295% (20 μM) | 13.21 min | 22.19 min | – | – | – | – | 76.6% | 8.76 min | 0.74 min | – | –
4 | CCSc1nnc2n1-c1ccc(Cl)cc1C(c1ccccc1Cl)=N[C@H]2CCC(=O)OC [Compound 26, methyl (S)-3-(8-chloro-6-(2-chlorophenyl)-1-(ethylthio)-4H-benzo[f][1,2,4]triazolo[4,3-a][1,4]diazepin-4-yl)propionate] | 0.36 min | 0.71 µM | 249% (20 μM) | 8.22 min | 9.46 min | 8.06 min | 0.18 min | – | – | 52.8% | 3.57 min | 1.5 min | – | –
5 | COC(=O)CC[C@@H]1N=C(c2ccccc2Cl)c2cc([N+](=O)[O-])ccc2-n2c(SCCN)nnc21 [Compound 37, methyl (S)-3-(8-nitro-6-(2-chlorophenyl)-1-((2-aminoethyl)thio)-4H-benzo[f][1,2,4]triazolo[4,3-a][1,4]diazepin-4-yl) propionate] | 0.22 min | – | 267% (20 μM) | 6.68 min | 10.5 min | 7.68 min | 0.21 min | – | – | 84.6% | 7.63 min | 0.49 min | 25.1 min | 0.53 µM
6 | COC(=O)CC[C@@H]1N=C(c2ccccc2Cl)c2cc(Cl)ccc2-n2c(SCC(=O)N3CCN(C)CC3)nnc21 [Compound 129, methyl (S)-3-(8-chloro-6-(2-chlorophenyl)-1-((2-(4-methylpiperazin-1-yl)2-oxyethyl)thio)-4H-benzo[f][1,2,4]triazolo[4,3-a][1,4]diazepin-4-yl)propionate] | 0.37 min | – | 257% (20 μM) | 10.22 min | 17.7 min | – | – | – | – | 75.9% | 13.27 min | 0.56 min | 17.28 min | 0.42 µM
7 | COC(=O)CC[C@@H]1N=C(c2ccccc2F)c2cc([N+](=O)[O-])ccc2-n2c(SC)nnc21 [Compound 10, methyl (S)-3-(8-nitro-6-(2-fluorophenyl)-1-(methylthio)-4H-benzo[f][1,2,4]triazolo[4,3-a][1,4]diazepin-4-yl)propionate] | 0.32 min | 0.67 µM | 202% (20 μM) | 5.35 min | 13.6 min | – | – | – | – | 58.7% | 3.15 min | 0.76 min | – | –
8 | CCSc1nnc2n1-c1ccc([N+](=O)[O-])cc1C(c1ccccc1F)=N[C@H]2CCC(=O)OC [Compound 13, methyl (S)-3-(8-nitro-6-(2-fluorophenyl)-1-(ethylthio)-4H-benzo[f][1,2,4]triazolo[4,3-a][1,4]diazepin-4-yl)propionate] | 0.58 min | 0.58 µM | 246% (20 μM) | 5.22 min | 11.4 min | – | – | – | – | 81.6% | 2.87 min | 0.23 min | – | –
9 | COC(=O)CC[C@@H]1N=C(c2ccccc2Cl)c2cc([N+](=O)[O-])ccc2-n2c(SC)nnc21 [Compound 25, methyl (S)-3-(8-nitro-6-(2-chlorophenyl)-1-(methylthio)-4H-benzo[f][1,2,4]triazolo[4,3-a][1,4]diazepin-4-yl)propionate] | 0.45 min | 0.64 µM | 242% (20 μM) | 7.35 min | 10.2 min | 5.89 min | 0.31 min | – | – | 81.5% | – | – | – | –
10 | COC(=O)CC[C@@H]1N=C(c2ccccc2Cl)c2cc([N+](=O)[O-])ccc2-n2c(SCCO)nnc21 [Compound 34, methyl (S)-3-(8-nitro-6-(2-chlorophenyl)-1-((2-hydroxyethyl)thio)-4H-benzo[f][1,2,4]triazolo[4,3-a][1,4]diazepin-4-yl)propionate] | 0.22 min | 0.38 µM | 302% (20 μM) | 48.2 min | 35.6 min | – | – | – | – | 85.6% | 21.9 min | 0.3 min | – | –
11 | COC(=O)CC[C@@H]1N=C(c2ccccc2Cl)c2cc(Cl)ccc2-n2c(SC)nnc21 [Compound 23, methyl (S)-3-(8-chloro-6-(2-chlorophenyl)-1-(methylthio)-4H-benzo[f][1,2,4]triazolo[4,3-a][1,4]diazepin-4-yl)propionate] | 0.36 min | 0.52 µM | 278% (20 μM) | 7.22 min | 13.2 min | 8.46 min | 0.25 min | 14.6 min | 0.16 min | 65.3% | – | – | – | –
